Where two headings read alike, the source gives them in different places.
Tests used:
[1] = biological target: EGFR wildtype (WT) (Homo sapiens, UniProt P00533); assay: Biochemical EGFR kinase assay (Lance Ultra TR-FRET), wildtype
Protocol: (§1) Biochemical EGFR kinase assays were conducted using Lance Ultra time-resolved fluorescence resonance energy transfer (TR-FRET) technology from Perkin-Elmer. Compounds of the invention were initially diluted to 20 mM in 100% DMSO for storage and made into kinase buffer solution to create a compound concentration ranging from 0.003 μM and 10 μM.
(§2) Each kinase reactions were incubated at room temperature for 1 hour and then stopped by the addition of 4 μL of stop solution (10 mM EDTA). The specific Europium-labeled-anti-phosphopeptide antibody (PerkinElmer, AD0069) diluted in LANCE detection buffer was then added to a final concentration of 2 nM. After 60 minutes incubation at room temperature the LANCE signal was measured on an EnVision Multilabel Reader (Perkin-Elmer). Excitation wavelength was set at 320 nm and emission monitored at 615 nm (donor) and 665 nm (acceptor). The IC50 values were determined using GraphPad prism software (GraphPad Software, Inc., San Diego, CA, USA).

[2] = biological target: EGFR del19/C797S (Homo sapiens, UniProt P00533, C797S/DEL746-750); assay: Biochemical EGFR kinase assay (Lance Ultra TR-FRET), del19/C797S
Protocol: as §1, §2

[3] = biological target: EGFR del19/T790M/C797S (Homo sapiens, UniProt P00533, C797S/DEL746-750/T790M); assay: Biochemical EGFR kinase assay (Lance Ultra TR-FRET), del19/T790M/C797S
Protocol: as §1, §2

[4] = biological target: EGFR L858R/C797S (Homo sapiens, UniProt P00533, C797S/L858R); assay: Biochemical EGFR kinase assay (Lance Ultra TR-FRET), L858R/C797S
Protocol: as §1, §2

[5] = biological target: EGFR L858R/T790M/C797S (Homo sapiens, UniProt P00533, C797S/L858R/T790M); assay: Biochemical EGFR kinase assay (Lance Ultra TR-FRET), L858R/T790M/C797S
Protocol: as §1, §2

[6] = Km ATP, read-out: IC50 WT (nM) Km ATP
[7] = Km ATP, read-out: IC50 del19/C797S (nM) Km ATP
[8] = Km ATP, read-out: IC50 del19/T790M/C797S (nM) Km ATP
[9] = Km ATP, read-out: IC50 L858R/T790M/C797S (nM) Km ATP
[10] = Km ATP, read-out: IC50 L858R/C797S (nM) Km ATP
[11] = IC50 WT (nM) 100 μM ATP, 100 μM ATP
[12] = IC50 del19/C797S (nM) 100 μM ATP, 100 μM ATP
[13] = IC50 L858R/T790M/C797S (nM) 100 μM ATP, 100 μM ATP
[14] = IC50 L858R/C797S (nM) 100 μM ATP, 100 μM ATP

Row | Molecule | IC50 ([1]; read-out: IC50 WT (nM) 100 μM ATP, 100 μM ATP) [nM] | IC50 ([2]; read-out: IC50 del19/C797S (nM) 100 μM ATP, 100 μM ATP) [nM] | IC50 ([3]; read-out: IC50 del19/T790M/C797S (nM) 100 μM ATP, 100 μM ATP) [nM] | IC50 ([4]; read-out: IC50 L858R/C797S (nM) 100 μM ATP, 100 μM ATP) [nM] | IC50 [1, 6] [nM] | IC50 [2, 7] [nM] | IC50 [3, 8] [nM] | IC50 [5, 9] [nM] | IC50 [4, 10] [nM] | IC50 [1, 11] [nM] | IC50 [2, 12] [nM] | IC50 [5, 13] [nM] | IC50 [4, 14] [nM]
1 | 6-((2-(1-(Cyclopropylsulfonyl)-1H-pyrazol-4-yl)pyrimidin-4-yl)amino)-N-(2-fluoroethyl)-4-(((1R,3S)-3-(hydroxymethyl)cyclopentyl)amino)nicotinamide [Example 75] | > 10000 | 14.5 | 0.7 | 30.5 | – | – | – | – | – | – | – | – | –
2 | CC(C)Nc1cc(Nc2ccnc(-c3cnn(S(=O)(=O)C4CC4)c3)n2)ncc1C(=O)C1CC1 [Example 1, Cyclopropyl(6-((2-(1-(cyclopropylsulfonyl)-1H-pyrazol-4-yl)pyrimidin-4-yl)amino)-4-(isopropylamino)pyridin-3-yl)methanone] | – | – | – | – | 566 | 4.5 | 3.8 | 1.1 | 84.3 | – | – | – | –
3 | C[C@@H](CCO)Nc1cc(Nc2ccnc(-c3cnn(S(=O)(=O)C4CC4)c3)n2)ncc1C(=O)C1CC1 [Example 8, (S)-Cyclopropyl(6-((2-(1-(cyclopropylsulfonyl)-1H-pyrazol-4-yl)pyrimidin-4-yl)amino)-4-((4-hydroxybutan-2-yl)amino)pyridin-3-yl)methanone] | – | – | – | – | 471 | 61.6 | 0.4 | 1.4 | 292 | – | – | – | –
4 | O=C(c1cnc(Nc2ccnc(-c3cnn(S(=O)(=O)C4CC4)c3)n2)cc1NCCCO)C1CC1 [Example 9, Cyclopropyl(6-((2-(1-(cyclopropylsulfonyl)-1H-pyrazol-4-yl)pyrimidin-4-yl)amino)-4-((3-hydroxypropyl)amino)pyridin-3-yl)methanone] | – | – | – | – | 528 | 70.7 | 0.7 | 2.5 | 479 | – | – | – | –
5 | O=C(c1cnc(Nc2ccnc(-c3cnn(S(=O)(=O)C4CC4)c3)n2)cc1N[C@H]1CC[C@H](O)C1)C1CC1 [Example 24, Cyclopropyl(6-((2-(1-(cyclopropylsulfonyl)-1H-pyrazol-4-yl)pyrimidin-4-yl)amino)-4-(((1S,3S)-3-hydroxycyclopentyl)amino)pyridin-3-yl)methanone] | – | – | – | – | – | – | – | – | – | > 10000 | 70.9 | 4.4 | 79.1
6 | CC(C)Nc1cc(Nc2ccnc(-c3cnn(S(=O)(=O)C4CC4)c3)n2)ncc1F [Example 41, N^2-(2-(1-(Cyclopropylsulfonyl)-1H-pyrazol-4-yl)pyrimidin-4-yl)-5-fluoro-N^4-isopropylpyridine-2,4-diamine] | – | – | – | – | 145 | 47.7 | – | 5.6 | 444 | – | – | – | –
7 | CC(C)Oc1cc(Nc2ccnc(-c3cnn(S(=O)(=O)C4CC4)c3)n2)ncc1NC(=O)C1CC1 [Example 42, N-(6-((2-(1-(Cyclopropylsulfonyl)-1H-pyrazol-4-yl)pyrimidin-4-yl)amino)-4-isopropoxypyridin-3-yl)cyclopropanecarboxamide] | – | – | – | – | 123 | 213 | 1 | 10.5 | – | – | – | – | –
8 | CCCNc1cc(Nc2ccnc(-c3cnn(S(=O)(=O)C4CC4)c3)n2)ncc1C(C)=O [Example 45, 1-(6-((2-(1-(Cyclopropylsulfonyl)-1H-pyrazol-4-yl)pyrimidin-4-yl)amino)-4-(propylamino)pyridin-3-yl)ethan-1-one] | – | – | – | – | 751 | 205 | 0.9 | 3.1 | – | – | – | – | –
9 | CC(C)(O)[C@H]1CC[C@@H](Nc2cc(Nc3ccnc(-c4cnn(S(=O)(=O)C5CC5)c4)n3)ncc2C(=O)C(F)F)CC1 [Example 50, 1-(6-((2-(1-(Cyclopropylsulfonyl)-1H-pyrazol-4-yl)pyrimidin-4-yl)amino)-4-(((1s,4s)-4-(2-hydroxypropan-2-yl)cyclohexyl)amino)pyridin-3-yl)-2,2-difluoroethan-1-one] | – | – | – | – | 1170 | 17.2 | – | 1.1 | 42.8 | > 10000 | 8.8 | 6.9 | 157
